Reference: EP4741383A1, “COMPOUND AND USE THEREOF AS ANTI-CANCER DRUG” (Tyligand Bioscience (Shanghai) Limited, priority 2023, dated 2025)

Test system: A20
Assay: CellTiter-Glo cell proliferation inhibition, A20
Type: cell-based
Settings: A20 (mouse B-cell lymphoma cell line), 72 hours; read-out: Example IC50 (µM) A20
Excerpt: This experiment used the CellTiter-Glo® Luminescent Cell Viability Assay kit from Promega to evaluate the inhibitory activity of the disclosed compounds on the proliferation of the following cell lines: 4T1 (mouse breast cancer cell line), A20 (mouse B-cell lymphoma cell line), A2780 (human ovarian cancer cell line), AsPC-1 (pancreatic cancer cell line), B16F10 (mouse melanoma cell line), BT549 (human breast cancer cell line), CT26 (mouse colon cancer cell line), EMT6 (mouse breast cancer cell line), HCT116 (colorectal cancer cell line), Jurket (acute leukemia cell line), KP-4 (pancreatic cancer cell line), LL/2 (mouse lung cancer cell line), MCF7 (breast cancer cell line), […] NCI-H358 (lung cancer cell line), NCI-H727 (gastric cancer cell line), NCI-1944 (lung cancer cell line), Pan 04.03 (pancreatic cancer cell line), SK-BR-3 (breast cancer cell line), THP-1 (leukemia cell line), TOV21G (ovarian cancer cell line), U87MG (glioblastoma cell line), and UM-UC-a (bladder cancer cell line).
All cell lines were purchased from Nanjing Kebai Biotechnology Co., Ltd. The following materials were also used in the experiment: RPMI-1640 media (HyClone, catalog number #SH30022.01), McCoy's 5A media (Thermo Fisher, catalog number #16600-082), MCDB 105 media (Sigma, catalog number #117-500), Medium 199 (Thermo Fisher, catalog number #11150-059), MEM media (Thermo Fisher, catalog number #11095-080), DMEM media (HyClone, catalog number #SH30027.01), fetal bovine serum (FBS) (ExCell, catalog number # M4530), Sodium Pyruvate (100Mm) (Thermo Fisher, catalog number #11360-070), and MEM NEAA (100X) (Thermo Fisher). […]
Cells were cultured according to the instructions provided by the cell supplier (Nanjing Kebai Biotechnology Co., Ltd.). […] Suspension or adherent cells were collected, and cell viability was determined using the trypan blue exclusion method, ensuring that cell viability was above 90%. […]

SMILES | IC50 [µM]
O=C(Nc1ccc(-c2csc(CO)c2)cc1)C(=O)Nc1ccc(-c2cc3cc(F)c(-c4nnn[nH]4)cc3n2C2CCC2)cc1 [Example 1] | 0.077
CC1(n2c(-c3ccc(NC(=O)C(=O)Nc4ccc(N5CCC6(CCOC6)CC5)cc4)cc3)cc3cc(F)c(-c4nnn[nH]4)cc32)CCC1 [Example 68] | 0.075
O=C(Nc1ccc(-c2cc3cc(F)c(-c4nnn[nH]4)cc3n2C2CCC2)cc1)C(=O)Nc1ccc(N2CCC3(CCC(O)C3)CC2)cc1 (stereo not drawn) [Example 100] | 0.128
